From patent US10849893B2 (Athenex HK Innovative Limited, priority 2018, dated 2020)
Where “and” joins values, the source holds several entries; their conditions need not be identical. Identical values can stand only once. Like-named read-outs stand apart in the source and are kept apart here.

Columns and labels:
[1] = 75 mg/m^2 over 28 days, monotherapy schedule for mHRPC; cited from earlier work
[2] = for Reported half-life: individual values, sampling to 168 h, LLOQ 0.2 ng/mL
Protocol: (§1) A 2-part study was conducted in subjects with solid tumors (“Study 2”). […] The dose levels increased to 75 mg/m^2, 150 mg/m^2, 225 mg/m^2, 300 mg/m^2, 375 mg/m^2, and 400 mg/m^2. In the second part of this study, half of the group starting at a selected dose from stage 1, was given over two consecutive days every three weeks. A total of 15 (n=40) subjects enrolled in this study.
(§2) All subject PK data within the dataset were analyzed using Phoenix 8.0. […] Individual time points for the terminal slope were automatically selected by the software, and linear up—log down interpolation calculation method was used for the analysis. Individual BLQ samples were set to 0.00 ng/ml for noncompartmental analysis unless the PK sample occurred between two PK samples above the limit of quantification, in which case the PK sample was set to missing. For the calculation of summary statistics and mean concentration figures, all BLQ samples were set to 0.00 ng/ml.

clinical [3] = assay: clinical
clinical [4] = settings: human, in vivo, po
Protocol: as §1, §2

[5] = oral 35 mg/m^2 with Compound A, Mean, N=4
[6] = oral 35 mg/m^2 with Compound A, individual subjects
[7] = oral 75 mg/m^2 with Compound A, Mean, N=3
[8] = oral 75 mg/m^2 with Compound A, individual subjects
[9] = oral 75 mg/m^2 with Compound A, individual subjects, listed as Docetaxel
[10] = oral 150 mg/m^2 with Compound A, individual subjects
[11] = oral 225 mg/m^2 with Compound A, Mean, N=3
[12] = oral 225 mg/m^2 with Compound A, individual subjects
[13] = male, human, in vivo, po, 75 mg/m2
[14] = mean oral (75 mg/m^2) as % of mean IV (60 mg/m^2)
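For AUC % Extrapobs in this document: noncompartmental pharmacokinetic analysis in subjects with solid tumors, using linear-up log-down interpolation, with terminal slope time points picked automatically by the software.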
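For AUC0-12 in this document: noncompartmental pharmacokinetic analysis in subjects with solid tumors, using linear-up log-down interpolation, with terminal slope time points picked automatically by the software.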
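For Reported half-life in this document: noncompartmental pharmacokinetic analysis in subjects with solid tumors, using linear-up log-down interpolation, with terminal slope time points picked automatically by the software.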
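For docetaxel plasma concentration vs in vitro target IC50 of 5 nM (4 ng/mL) in this document: noncompartmental pharmacokinetic analysis in subjects with solid tumors, using linear-up log-down interpolation, with terminal slope time points picked automatically by the software.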

## CC(=O)O[C@@]12CO[C@@H]1C[C@H](O)[C@@]1(C)C(=O)[C@H](O)C3=C(C)[C@@H](OC(=O)[C@H](O)[C@@H](NC(=O)OC(C)(C)C)c4ccccc4)C[C@@](O)([C@@H](OC(=O)c4ccccc4)[C@H]21)C3(C)C [docetaxel, (2aR,4S,4aS,6R,9S,11S,12S,12aR,12b S)-12b-acetoxy-9-(((2R,3S)-3-((tert-butoxycarbonyl)amino)-2-hydroxy-3-phenylpropanoyl)oxy)-4,6,11-trihydroxy-4a,8,13,13-tetramethyl-5-oxo-2a,3,4,4a,5,6,9,10,11,12,12a, 12b-dodecahydro-1H-7,11-methanocyclodeca[3,4]benzo[1,2-b]oxet-12-yl benzoate]
[1]
  target AUC: 3410 ± 980 ng·h/mL
[2]; individuals administered 35 or 75 mg/m^2 oral docetaxel
  docetaxel plasma concentration vs in vitro target IC50 of 5 nM (4 ng/mL): > 4 ng/mL
[2]; oral 35 mg/m^2
  Reported half-life: 35 mg/m^2: 3.4 h, and 19.1 h and 65.3 h
[2]; oral 35 mg/m^2 SD
  Average Time above Target (0 to last time point measured above 4 ng/ml): 7.5 h
[2]; oral 35 mg/m^2 with Compound A
  Dose Normalized AUC: 39.97
[2]; [5]
  AUC % Extrapobs: 7.51%
  Tmax: 1.50 h
[2]; [6]
  AUC0-12: 145 ng·h/mL and 39.8 ng·h/mL and 198 ng·h/mL and 353 ng·h/mL
  AUC0-24: 178 ng·h/mL and 46.1 ng·h/mL and 227 ng·h/mL and 392 ng·h/mL
  AUC0-48: 218 ng·h/mL and 46.1 ng·h/mL and 257 ng·h/mL and 440 ng·h/mL
  AUC % Extrapobs: 7.76% and 11.4% and 3.39% and 7.45%
  AUCINF—obs: 259 ng·h/mL and 44.9 ng·h/mL and 279 ng·h/mL and 599 ng·h/mL
  Cmax: 38.0 ng/mL and 73.0 ng/mL and 157 ng/mL and 8.59 ng/mL
  Tmax: 2.00 h and 1.00 h
  t1/2: 22.8 h and 3.40 h and 19.1 h and 65.3 h
[2]; oral 35 mg/m^2 with Compound A, individual subjects by cancer diagnosis
  AUC0-24: 170 to 392 ng·h/mL
[2]; oral 35 mg/m^2 with Compound A, individual subjects by cancer diagnosis, listed as Docetaxel
  AUC0-24: 170 ng·h/mL and 227 ng·h/mL and 392 ng·h/mL
[2]; oral 75 mg/m^2
  Reported half-life: 62.4 h and 45.8 h
[2]; oral 75 mg/m^2 SD
  Average Time above Target (0 to last time point measured above 4 ng/ml): 21.5 h
[2]; oral 75 mg/m^2 with Compound A
  Dose Normalized AUC: 38.23
[2]; [7]
  AUC0-12: 512 ng·h/mL
  AUC0-24: 598 ng·h/mL
  AUC % Extrapobs: 3.89%
  Tmax: 2.00 h
[2]; [8]
  Cmax: 81.6 to 190 ng/mL
  Tmax: 2.00 h
[2]; oral 75 mg/m^2 with Compound A, individual subjects by cancer diagnosis
  AUC0-24: 304 to 1030 ng·h/mL
[2]; oral 75 mg/m^2 with Compound A, individual subjects by cancer diagnosis, listed as Docetaxel
  AUC0-24: 461 ng·h/mL and 304 ng·h/mL and 1030 ng·h/mL
[2]; [9]
  AUC0-12: 390 ng·h/mL and 270 ng·h/mL and 875 ng·h/mL
  AUC0-24: 461 ng·h/mL and 304 ng·h/mL and 1030 ng·h/mL
  AUC0-48: 543 ng·h/mL and 334 ng·h/mL and 1150 ng·h/mL
  AUC % Extrapobs: 4.31% and 4.87% and 2.50%
  AUCINF—obs: 690 ng·h/mL and 409 ng·h/mL and 1350 ng·h/mL
  Cmax: 165 ng/mL and 81.6 ng/mL and 190 ng/mL and 270 ng/mL
  t1/2: 62.1 h and 45.8 h
[2]; oral 150 mg/m^2
  Reported half-life: 53.3 h and 63.3 h
[2]; oral 150 mg/m^2 SD
  Average Time above Target (0 to last time point measured above 4 ng/ml): 15.5 h
[2]; oral 150 mg/m^2 with Compound A
  Dose Normalized AUC: 26.70
[2]; [10]
  AUC0-12: 898 ng·h/mL and 650 ng·h/mL
  AUC0-24: 1050 ng·h/mL and 720 ng·h/mL and 490 ng·h/mL
  AUC0-48: 1150 ng·h/mL and 775 ng·h/mL and 538 ng·h/mL
  AUC % Extrapobs: 5.59% and 2.53% and 5.32%
  AUCINF—obs: 1380 ng·h/mL and 876 ng·h/mL and 673 ng·h/mL
  Cmax: 136 ng/mL and 112 ng/mL
  Tmax: 2.00 h and 4.00 h
  t1/2: 63.3 h
[2]; oral 150 mg/m^2 with Compound A, individual subjects by cancer diagnosis
  AUC0-24: 490 to 1050 ng·h/mL
[2]; oral 150 mg/m^2 with Compound A, individual subjects by cancer diagnosis, listed as Docetaxel
  AUC0-24: 1050 ng·h/mL and 720 ng·h/mL and 490 ng·h/mL
[2]; [11]
  AUC0-12: 618 ng·h/mL
  AUC % Extrapobs: 4.93%
  Cmax: 114 ng/mL
  Tmax: 1.00 h
[2]; [12]
  AUC0-12: 835 ng·h/mL and 380 ng·h/mL and 637 ng·h/mL
  AUC0-24: 416 ng·h/mL and 974 ng·h/mL
  AUC0-48: 1100 ng·h/mL and 443 ng·h/mL and 1200 ng·h/mL
  AUC % Extrapobs: 6.48% and 3.06% and 5.26%
  AUCINF—obs: 1390 ng·h/mL and 517 ng·h/mL and 1650 ng·h/mL
  Cmax: 139 ng/mL and 84.7 ng/mL
  Tmax: 2.00 h
  t1/2: 46.1 h
Clinical [3]; male, human, in vivo
  Tmax Mean %: 207.55%
Clinical [3]; male, human, in vivo, iv
  Average Time above Target (0 to last time point measured above 4 ng/ml): 40.9 h
  Dose Normalized AUC: 27.17 ng·h/mL
Clinical [3]; male, human, in vivo, iv, 60 mg/m2, AUC0-24
  AUC(0-t): 1350 to 1970 ng·h/mL
Clinical [3]; male, human, in vivo, iv, 60 mg/m2, AUC0-inf
  AUC(0-inf): 1970 ng·h/mL
Clinical [3]; male, human, in vivo, iv, 60 mg/m2, AUC0-t
  AUC(0-t): 1890 ng·h/mL
Clinical [3]; male, human, in vivo, iv, 60 mg/m2, Cmax
  Cmax: 1020 to 1570 ng/mL
Clinical [3]; male, human, in vivo, iv, 60 mg/m2, Tmax
  Tmax: 0.88 h
Clinical [3]; male, human, in vivo, iv, Reported half-life
  half-life: 17.4 h
Clinical [3]; male, human, in vivo, po
  Average Time above Target (0 to last time point measured above 4 ng/ml): 20.5 h
  Dose Normalized AUC: 23.33 ng·h/mL
Clinical [3]; [13]
  AUC(0-inf): 476 ng·h/mL
  half-life: 21.3 h
Clinical [3]; male, human, in vivo, po, 75 mg/m2, AUC0-24
  AUC(0-t): 313 to 336 ng·h/mL
Clinical [3]; male, human, in vivo, po, 75 mg/m2, AUC0-inf
  AUC(0-inf): 478 ng·h/mL
Clinical [3]; male, human, in vivo, po, 75 mg/m2, AUC0-t
  AUC(0-t): 395 ng·h/mL
Clinical [3]; male, human, in vivo, po, 75 mg/m2, Reported half-life
  half-life: 16.4 h
Clinical [3]; male, human, in vivo, po, 75 mg/m2, Tmax
  Tmax: 1.83 h
Clinical [3]; [14]
  Cmax Mean %: 7.87%
  t1/2 Mean %: 104.60%
Clinical [4]; 35 mg/m2
  AUC(0-inf): 308 ng·h/mL
Clinical [4]; 150 mg/m2
  half-life: 53.2 h
Clinical [4]; 150 mg/m2, Cmax, oral 150 mg/m^2 with Compound A, individual subjects
  Cmax: 125 ng/mL
